The values below come from PubChem BioAssay (NCI).

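Cultured in 96-well plates, cells were exposed to test compound for 48 hours across five concentrations. TGI denotes the concentration required for complete inhibition of growth.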

Among the test systems are DU-145 prostate; P388/ADR leukemia; P388 leukemia; SN12K1 renal; XF 498 CNS; DLD-1 colon; LXFL 529 NSCLC; RXF-631 renal.
Holding throughout (experiment): NCI tumour cell line growth inhibition, 48 h

In turn, `O=c1c2c3c(sc2nc2n1N=C(c1ccc([N+](=O)[O-])cc1)CS2)CCCC3` showed a TGI in the experiment with DU-145 prostate of over 100 µM.

In the case of `CCCCS(=O)CC(CO)NC(=O)/C=C/c1c(C)[nH]c(=O)[nH]c1=O` (stereo unspecified), the TGI worked out at 59.2 µM with P388/ADR leukemia; 6.93 µM with P388 leukemia; 24.1 µM with SN12K1 renal; 14 µM with XF 498 CNS; 72.1 µM in the experiment on DLD-1 colon.

`Nc1ccc(OCCCc2c(-c3ccccc3)nc(N)[nH]c2=O)cc1` returned a TGI in the experiment on DU-145 prostate of over 100 µM.

Regarding `O=C1CSC(C(N=Nc2ccc(Cl)cc2)c2nc3ccccc3[nH]2)=N1` (stereo unspecified), the TGI with LXFL 529 NSCLC is over 100 µM; in the experiment with XF 498 CNS, 45.9 µM; with DLD-1 colon, over 100 µM.

For `CC1=C/C(=C2/N=C(N(C)C)SS2)C(C)=N1`, the TGI with LXFL 529 NSCLC, in the experiment with XF 498 CNS and in the experiment with DLD-1 colon was over 100 µM throughout.

In the experiment on DU-145 prostate, `Cc1cccc(C(=O)O)c1CC1NCCC2c3ccccc3NC12` (stereo unspecified) gave a TGI of over 100 µM.

In the experiment with DU-145 prostate, `Cc1nc2cccc([N+](=O)[O-])c2n1CCCN(C)C` showed a TGI of over 100 µM.

In the case of `C[N+](C)(C)C(C1=CCCC1=O)c1ccccc1` (stereo unspecified), in the experiment with DU-145 prostate, the TGI was over 100 µM.

In turn, `CNc1nc2c(C)ccc3[nH]c(N(C)C)nc3c-2n1` registered a TGI in the experiment on DU-145 prostate of over 100 µM.

Regarding `CN=C(NC)N(C)c1nc(=[N+](C)C)ss1`, in the experiment with LXFL 529 NSCLC, the TGI is over 100 µM.

With `Cc1cc2c(C(C)C)c(O)c(O)c(C=Nc3ccccc3)c2c(O)c1-c1c(C)cc2c(C(C)C)c(O)c(O)c(C=Nc3ccccc3)c2c1O`, the TGI in the experiment with LXFL 529 NSCLC, with XF 498 CNS and in the experiment on DLD-1 colon was over 100 µM throughout.

Take `O=C1CCCN1CCCN=c1cc2n(-c3ccc(Cl)cc3)c3ccccc3nc-2cc1Nc1ccc(Cl)cc1`: the TGI with P388/ADR leukemia amounted to 15.4 µM; with P388 leukemia it was 13 µM; in the experiment with SN12K1 renal, 23.3 µM; in the experiment with XF 498 CNS it was 35.3 µM; with DLD-1 colon it was 28.3 µM.

Take `COC(=O)C1C(O)C(C)C(O)OC1C(C)C(O)C(C)/C=C\C=C(/C)C(=O)Nc1c(C)c(OC(C)=O)c2c(c1O)C(=O)C(C)=C1OCOC(/C(C)=C/C(C)=O)=C12` (stereo unspecified): the TGI amounted to 39.4 µM in the experiment on P388/ADR leukemia; 12.4 µM with P388 leukemia; 25.6 µM in the experiment with SN12K1 renal; 24.6 µM in the experiment with XF 498 CNS; 19.4 µM with DLD-1 colon.

`CC(C)[C@](O)(C(=O)OCC1=CCN2CC[C@@H](O)[C@@H]12)[C@H](C)O`: the TGI with P388/ADR leukemia, with P388 leukemia, in the experiment on SN12K1 renal, with XF 498 CNS and with DLD-1 colon was over 375 µM in each case.

Regarding `CCN(CC)CCNC(=O)c1nn(-c2ccc(Cl)cc2)c2c1CCc1cc(OC)ccc1-2`, the TGI was found to be 3.16 µM in the experiment with RXF-631 renal; 29.1 µM with DU-145 prostate; 16.4 µM in the experiment with LXFL 529 NSCLC; 17.6 µM in the experiment with XF 498 CNS; 14.2 µM with DLD-1 colon.
